LC retention time data for 73 compounds are collected here from the RepoRT retention time repository (doi:10.1016/j.jhazmat.2019.121712).

The data set is described as follows: Thermo Scientific Acclaim RSLC 120 C18, 100 × 2.1 mm, 2.2 µm, 30 °C; A: 90% water + 10% methanol + 0.01% formic acid + 5 mM ammonium formate; B: methanol + 0.01% formic acid + 5 mM ammonium formate; gradient (min/%B) 0.1/1 3/39 14/99.9 16/99.9. The following applies: stereoisomer not certain.
For the compound `COCCOc1ccccc1S(=O)(=O)NC(=O)Nc1nc(OC)nc(OC)n1`, the LC retention time is 6.36 min.
Next, `CN1CSC(=S)N(C)C1`: 3.97 min; `CN(C)CCC(c1ccccc1)c1ccccn1` (stereo not drawn): 4.98 min.
In the case of `c1ccc2c(c1)Cc1cccnc1N1CCNCC21` (stereo not drawn) it was 5.31 min; in that of `CCCCCCC(C)(C)c1ccc(C2CC(O)CCC2CCCO)c(O)c1` (stereo not drawn), 12 min.
Next, `CCOc1ccc(C(C)(C)COCc2cccc(Oc3ccccc3)c2)cc1`: 14.1 min; `CCCCC(CC)CN1C(=O)C2C3C=CC(C3)C2C1=O` (stereo not drawn): 11.6 min; `CC(C)(C)NCC(O)COc1ccccc1C#N` (stereo not drawn): 4.66 min.
For the compound `COc1ccc2c(c1)N(CC(C)CN(C)C)c1ccccc1S2=O` (stereo not drawn), the LC retention time was 5.98 min.
For the compound `CCC1=C(C)CN(C(=O)NCCc2ccc(S(=O)(=O)NC(=O)NC3CCC(C)CC3)cc2)C1=O` (stereo not drawn), the LC retention time turned out to be 10.7 min.
Take `Cc1ccc(C2(c3ccccc3)NC(=O)NC2=O)cc1` (stereo not drawn): the LC retention time stood at 8.12 min.
Take `C=C1CC(=CC)C(=O)OC2CCN3CC=C(COC(=O)C1(C)O)C23` (stereo not drawn): the LC retention time worked out at 4.17 min.
In the case of `CCCS(=O)(=O)c1ccc2nc(NC(=O)OC)[nH]c2c1` it was 5.86 min; in that of `COc1ccc(OC)c(CCN)c1`, 4.43 min; in that of `CCC(C(N)=O)N1CCCC1=O` (stereo not drawn), 3.74 min.
Regarding `CC#Cc1cc(C)nc(Nc2ccccc2)n1`, the LC retention time turned out to be 10.2 min.
Next, `CCOC(=O)C1(c2ccccc2)CCN(CCC(C#N)(c2ccccc2)c2ccccc2)CC1`: 10.4 min; `CC(C)NCC(O)c1ccc(NS(C)(=O)=O)cc1` (stereo not drawn): 2.96 min; `CC(C)(C)C(NC(=O)c1nn(CC2CCCCC2)c2ccccc12)C(N)=O` (stereo not drawn): 11.7 min.
As for `CCS(=O)(=O)Cc1ccccc1OC(=O)NC`, the LC retention time was 4.63 min.
`CCOc1ccc2c(c1)C(C)=CC(C)(C)N2`: the LC retention time came to 10.1 min.
Consider `Cc1ccc(S(=O)(=O)NC(=O)NN2CCCCCC2)cc1`, for which the LC retention time was found to be 8.09 min.
In the case of `CCC(CC)(CNC(=O)CCCO)c1cccc(OC)c1` it was 8.98 min; in that of `CCOc1cc(CC(=O)NC(CC(C)C)c2ccccc2N2CCCCC2)ccc1C(=O)O` (stereo not drawn), 11.9 min; in that of `CN1CCN2c3ccccc3Cc3ccccc3C2C1` (stereo not drawn), 6.94 min.
In the case of `CCCc1nn(C)c2c(=O)[nH]c(-c3cc(S(=O)(=O)N4CCCCC4)ccc3OCC)nc12` it was 10.9 min; in that of `CCCCCn1c(O)c(C(=O)c2cccc3ccccc23)c2ccccc21`, 14 min.
In the case of `Nc1ccc(O)c(C(=O)O)c1` it was 1.63 min.
With `COC(=O)NS(=O)(=O)c1ccc(N)cc1`, the LC retention time was found to be 3.41 min.
In the case of `CCc1cc2cc(OC)c(OC)cc2c(Cc2ccccc2)n1` it was 8.29 min; in that of `CCCCn1cc(C(=O)c2cccc3ccccc23)c2ccccc21`, 11.9 min.
With `COc1cc(NS(=O)(=O)c2ccc(N)cc2)nc(OC)n1`, the LC retention time stood at 5.6 min.
Next, `CNC(=O)ON=C(C)C(C)S(C)(=O)=O` (stereo not drawn): 3.66 min.
Take `Cc1cccc(OCC(O)CNC(C)C)c1` (stereo not drawn): the LC retention time was 5.29 min.
`CC(C)NCC(O)COc1cccc2ccccc12` (stereo not drawn): the LC retention time is 6.59 min.
Next, `Cc1cccc(CC(C)N)c1` (stereo not drawn): 5.17 min.
In the case of `CC(C)c1cc(Oc2ccccc2)cc(C(C)C)c1NC(=S)NC(C)(C)C` it was 12.9 min.
Turning to `CCNCC(=O)Nc1c(C)cccc1C`, the LC retention time turned out to be 4.33 min.
In the case of `COC(=O)C1=C(C)NC(C)=C(C(=O)OCCN(C)Cc2ccccc2)C1c1cccc([N+](=O)[O-])c1` (stereo not drawn) it was 8.39 min; in that of `CC(NCCc1ccc(O)cc1)C(O)c1ccc(O)cc1` (stereo not drawn), 3.79 min; in that of `COc1cc2[nH]c(C)c(CCN3CCN(c4ccccc4)CC3)c2cc1OC`, 5.76 min.
With `CCSCc1ccccc1OC(=O)NC`, the LC retention time came to 7.7 min.
For the compound `Cc1ccc(N=Nc2c(O)ccc3ccccc23)c(C)c1`, the LC retention time came out at 14.9 min.
On to `CCOP(=O)(NC(C)C)Oc1ccc(S(C)(=O)=O)c(C)c1` (stereo not drawn), for which the LC retention time turned out to be 7.21 min.
In the case of `c1cncc(C2CCCN2)c1` (stereo not drawn) it was 3.14 min; in that of `CN1CCC(N(Cc2ccccc2)c2ccccc2)CC1`, 7.77 min.
Turning to `C=CCN(CC=C)CCc1c[nH]c2ccc(OC)cc12`, the LC retention time was 4.89 min.
Next, `CCOC(=O)c1ccc(N)cc1`: 6.27 min; `CCCc1nn(C)c2c(=O)[nH]c(-c3cc(S(=O)(=O)N4CCN(Cc5ccccc5)CC4)ccc3OCC)nc12`: 11.5 min; `CCOP(=S)(OCC)Oc1ccc(=O)n(-c2ccccc2)n1`: 9.79 min.
Regarding `CC(C)CCOc1ccc(NC(=S)Nc2ccc(OCCC(C)C)cc2)cc1`, the LC retention time came out at 13 min.
Turning to `CCCNC(C)C(=O)Nc1ccccc1C` (stereo not drawn), the LC retention time was found to be 4.69 min.
Next, `Cc1ccc(C(=O)c2ccc(CC(=O)O)n2C)cc1`: 7.89 min.
Next, `COC(=O)CCc1ccc(OCC(O)CNC(C)C)cc1` (stereo not drawn): 5.18 min; `CCCOC(=O)NCCCN(C)C`: 3.5 min; `CCCCCCCCCc1ccc(OCCO)cc1`: 13.2 min.
Next, `CC=C1CC(C)C(C)(O)C(=O)OCC2=CCN3CCC(OC1=O)C23` (stereo not drawn): 4.62 min.
For `C=CCC(C(=O)NC(N)=O)C(C)C` (stereo not drawn), the LC retention time turned out to be 6.94 min.
Next, `CCCNC(C)Cc1ccccc1` (stereo not drawn): 4.83 min; `CN1CCC23c4c5ccc(OCCN6CCOCC6)c4OC2C(O)C=CC3C1C5` (stereo not drawn): 2.73 min.
Turning to `CN=C(NC#N)NCCSCc1nc[nH]c1C`, the LC retention time was 3.24 min.
Turning to `CN(C(=O)CN(CCO)CC(=O)N(C)C(C)(C)Cc1ccccc1)C(C)(C)Cc1ccccc1`, the LC retention time came to 10.9 min.
Next, `CCCCC(CC)COC(=O)c1ccccc1C(=O)OCC(CC)CCCC` (stereo not drawn): 15 min; `CC12CCC3c4ccc(O)cc4CCC3C1CC(O)C2O` (stereo not drawn): 6.83 min; `CCC=CCC1=C(C)C(OC(=O)C2C(C=C(C)C)C2(C)C)CC1=O` (stereo not drawn): 13.3 min.
Next, `CNc1nc(NC(C)C)nc(SC)n1`: 8.17 min; `CN1CCOC(c2ccccc2)c2ccccc2C1` (stereo not drawn): 5.67 min; `CCOC(=O)NC(=S)Nc1ccccc1NC(=S)NC(=O)OCC`: 8.61 min.
For `COC(=O)c1sccc1S(=O)(=O)NC(=O)Nc1nc(C)nc(OC)n1`, the LC retention time worked out at 6.24 min.
In the case of `Cc1nnc(SCC2=C(C(=O)O)N3C(=O)C(NC(=O)Cn4cnnn4)C3SC2)s1` (stereo not drawn) it was 4.16 min; in that of `CCOP(=O)(OCC)OCC`, 6.16 min; in that of `Cc1nc(N(C)C)nc(OC(=O)N(C)C)c1C`, 7.77 min.
Next, `COC(=O)C(Cc1ccccc1)NC(=O)C(CC(=O)O)NCCC(C)(C)C` (stereo not drawn): 8.83 min.
